Common to all, as to test: microbe, parasite or virus in culture
Details in all cases: Hepatitis C virus

For assay [1], the system named is stable HCV 2a JFH-1 Rluc replicon cells (L31 present in NS5A). It is filed as cell-based.
In assay [2] the test system is NS5A chimeric genotype 1b Con1 replicon with genotype 3a S52 strain NS5A gene. It is filed as cell-based, HCV. As to the method: (§1) Evaluation of Cell-Based Anti-HCV Activity:
(§2) Antiviral potency (EC50) was determined using a Renilla luciferase (RLuc)-based HCV replicon reporter assay. […] To perform the assay for genotype 2a (with M31 present in NS5A) or 2b, NS5A chimeric genotype 2a JFH-1 replicons that encodes a RLuc-Neo reporter and either genotype 2a J6 strain NS5A gene or genotype 2b MD2b-1 strain NS5A gene (both with M31 present) respectively, were either transiently transfected (t) into Huh-Lunet cells or were established as stably replicating replicon cells (s) is provided. Either cells were dispensed into 384-well plates for EC50 assays. To perform the assay for genotype 3 and 4, NS5A chimeric genotype 1b Con1 replicons that encodes a Pi-RLuc reporter and either genotype 3a S52 strain NS5A gene or genotype 4a ED43 strain NS5A gene respectively, were transiently transfected (t) into Huh-Lunet cells, which were subsequently dispensed into 384-well plates. Compounds were dissolved in DMSO at a concentration of 10 mM and diluted in DMSO either manually or using an automated pipeting instrument. Serially 3-fold diluted compounds were either manually mixed with cell culture media and added to the seeded cells or directly added to the cells using an automated instrument. […] 72 hours later, cells were lysed and Renilla luciferase activity quantified as recommended by the manufacturer (Promega-Madison, Wis.). Non-linear regression was performed to calculate EC50 values.

The subject of assay [3] is NS5A chimeric genotype 2a JFH-1 replicon with genotype 2b MD2b-1 strain NS5A gene (M31 present). It counts as cell-based, HCV. Here is the method:
as §1, §2

Assay [4] deals with NS5A chimeric genotype 2a JFH-1 replicon with genotype 2a J6 strain NS5A gene (M31 present). It is filed as cell-based, HCV. Here is the method:
as §1, §2

For assay [5], the system named is 1a Pi-Rluc replicon with Q30R in genotype 1a NS5A. It counts as cell-based, HCV. Here is the method: as §2
To determine the antiviral potency (EC50) against resistance mutants, resistance mutations, including M28T, Q30R, Q30H, L31M, and Y93C in genotype 1a NS5A and Y93H in genotype 1b NS5A, were introduced individually into either 1a Pi-Rluc or 1b Pi-Rluc replicons by site directed mutagenesis. Replicon RNA of each resistant mutant was transiently transfected into Huh-7-derived cured-51 cells and antiviral potency was determined on these transfected cells as described above.

In assay [6] the test system is stable HCV 1a RLuc replicon cells (genotype 1a H77 replicon). It is filed as cell-based. As to the method:
as §1, §2

Structures are written as SMILES. Read-outs that look alike come from different tables or passages of the source.

As to `COC(=O)N[C@H](C(=O)N1C[C@@H](C)C[C@H]1c1ncc(-c2ccc3c(c2)COc2cc4c(ccc5nc([C@@H]6CC[C@H](C)N6C(=O)[C@@H](NC(=O)OC)C(C)C)[nH]c54)cc2-3)[nH]1)C(C)C` [Example QG, Methyl {(2S)-1-[(2S,5S)-2-(9-{2-[(2S,4S)-1-{(2S)-2-[(methoxycarbonyl)amino]-3-methylbutanoyl}-4-methylpyrrolidin-2-yl]-1H-imidazol-5-yl}-1,11-dihydroisochromeno[4′,3′:6,7]naphtho[1,2-d]imidazol-2-yl)-5-methylpyrrolidin-1-yl]-3-methyl-1-oxobutan-2-yl}carbamate], the EC50 is less than 1 nM in assay [1] (read-out: 2a JFH); 0.004 nM in assay [1] (read-out: 2a JFH (nM)); less than 1 nM in assay [2] (read-out: 3a); 0.016 nM in assay [2] (read-out: 3a (nM)); less than 1 nM in assay [3] (read-out: 2b); 0.043 nM in assay [3] (read-out: 2b (s) (nM)). For the same molecule, the EC50 in assay [3] (read-out: 2b (t) (nM)) is 0.065 nM; in assay [4] (read-out: 2a J6), less than 1 nM; in assay [4] (read-out: 2a Jb (t) (nM)) it was 0.551 nM; in assay [5] (read-out: 1a Q30R), less than 1 nM; in assay [5] (read-out: 1a Q30R (nM)) it was 0.071 nM; in assay [6] (read-out: 1a), less than 1 nM. Moreover, the EC50 in assay [6] (read-out: 1a (nM)) was determined as 0.005 nM.
As to `COC[C@H]1C[C@@H](c2ncc(-c3ccc4c(c3)COc3cc5c(ccc6nc([C@@H]7C[C@H]8C[C@H]8N7C(=O)[C@@H](NC(=O)OC)C(C)C)[nH]c65)cc3-4)[nH]2)N(C(=O)[C@H](NC(=O)OC)c2ccccc2)C1` [Example PR, methyl {(1R)-2-[(2S,4S)-2-(5-{2-[(1R,3S,5R)-2-{(2S)-2-[(methoxycarbonyl)amino]-3-methylbutanoyl}-2-azabicyclo[3.1.0]hex-3-yl]-1,11-dihydroisochromeno[4′,3′:6,7]naphtho[1,2-d]imidazol-9-yl}-1H-imidazol-2-yl)-4-(methoxymethyl)pyrrolidin-1-yl]-2-oxo-1-phenylethyl}carbamate], the EC50 in assay [1] (read-out: 2a JFH) was less than 1 nM; in assay [1] (read-out: 2a JFH (nM)), 0.007 nM; in assay [2] (read-out: 3a) it was less than 1 nM; in assay [2] (read-out: 3a (nM)), 0.018 nM; in assay [3] (read-out: 2b), less than 1 nM; in assay [3] (read-out: 2b (t) (nM)), 0.028 nM. Besides, the EC50 in assay [4] (read-out: 2a J6) is less than 1 nM; in assay [4] (read-out: 2a Jb (t) (nM)), 0.022 nM; in assay [5] (read-out: 1a Q30R) it was less than 1 nM; in assay [5] (read-out: 1a Q30R (nM)), 0.045 nM; in assay [6] (read-out: 1a) it was less than 1 nM; in assay [6] (read-out: 1a (nM)), 0.013 nM.
For `COC[C@H]1C[C@@H](c2ncc(-c3ccc4c(c3)COc3cc5c(cc3-4)CCc3nc([C@@H]4CCCN4C(=O)[C@@H](NC(=O)OC)C(C)C)[nH]c3-5)[nH]2)N(C(=O)[C@H](NC(=O)OC)c2ccccc2)C1` [Example OK, Methyl {(1R)-2-[(2S,4S)-2-(5-{2-[(2S)-1-{(2S)-2-[(methoxycarbonyl)amino]-3-methylbutanoyl}pyrrolidin-2-yl]-1,4,5,11-tetrahydroisochromeno[4′,3′:6,7]naphtho[1,2-d]imidazol-9-yl}-1H-imidazol-2-yl)-4-(methoxymethyl)pyrrolidin-1-yl]-2-oxo-1-phenylethyl}carbamate], the EC50 in assay [1] (read-out: 2a JFH) was less than 1 nM; in assay [1] (read-out: 2a JFH (nM)), 0.011 nM; in assay [2] (read-out: 3a), less than 1 nM; in assay [2] (read-out: 3a (nM)), 0.028 nM; in assay [3] (read-out: 2b), less than 1 nM; in assay [3] (read-out: 2b (s) (nM)), 0.045 nM. Moreover, the EC50 was 0.036 nM in assay [3] (read-out: 2b (t) (nM)); less than 1 nM in assay [4] (read-out: 2a J6); 0.076 nM in assay [4] (read-out: 2a Jb (t) (nM)); less than 1 nM in assay [5] (read-out: 1a Q30R); 0.039 nM in assay [5] (read-out: 1a Q30R (nM)); less than 1 nM in assay [6] (read-out: 1a). Further, in assay [6] (read-out: 1a (nM)), the EC50 worked out at 0.026 nM.
Regarding `COC(=O)N[C@H](C(=O)N1[C@@H](C)CC[C@H]1c1nc2ccc3cc4c(cc3c2[nH]1)OCc1cc(-c2cnc([C@@H]3C[C@H](C)CN3C(=O)[C@H](NC(=O)OC)c3ccccc3)[nH]2)ccc1-4)C(C)C` [Example QF, Methyl {(2S)-1-[(2S,5S)-2-(9-{2-[(2S,4S)-1-{(2R)-2-[(methoxycarbonyl)amino]-2-phenylacetyl}-4-methylpyrrolidin-2-yl]-1H-imidazol-5-yl}-1,11-dihydroisochromeno[4′,3′:6,7]naphtho[1,2-d]imidazol-2-yl)-5-methylpyrrolidin-1-yl]-3-methyl-1-oxobutan-2-yl}carbamate], the EC50 in assay [1] (read-out: 2a JFH) was less than 1 nM; in assay [1] (read-out: 2a JFH (nM)), 0.004 nM; in assay [2] (read-out: 3a), less than 1 nM; in assay [2] (read-out: 3a (nM)) it was 0.02 nM; in assay [3] (read-out: 2b), less than 1 nM; in assay [3] (read-out: 2b (s) (nM)), 0.011 nM. In addition, the EC50 was 0.015 nM in assay [3] (read-out: 2b (t) (nM)); less than 1 nM in assay [4] (read-out: 2a J6); 0.053 nM in assay [4] (read-out: 2a Jb (t) (nM)); less than 1 nM in assay [5] (read-out: 1a Q30R); 0.032 nM in assay [5] (read-out: 1a Q30R (nM)); less than 1 nM in assay [6] (read-out: 1a). The EC50 in assay [6] (read-out: 1a (nM)) came to 0.008 nM.
Consider `COC(=O)N[C@H](C(=O)N1[C@@H](C)CC[C@H]1c1nc2ccc3cc4c(cc3c2[nH]1)OCc1cc(-c2cnc([C@@H]3C[C@H](C)CN3C(=O)[C@@H](NC(=O)OC)[C@@H](C)OC)[nH]2)ccc1-4)C(C)C` [Example QH, Methyl {(2S)-1-[(2S,5S)-2-(9-{2-[(2S,4S)-1-{(2S,3R)-3-methoxy-2-[(methoxycarbonyl)amino]butanoyl}-4-methylpyrrolidin-2-yl]-1H-imidazol-5-yl}-1,11-dihydroisochromeno[4′,3′:6,7]naphtho[1,2-d]imidazol-2-yl)-5-methylpyrrolidin-1-yl]-3-methyl-1-oxobutan-2-yl}carbamate], for which the EC50 was less than 1 nM in assay [1] (read-out: 2a JFH); 0.005 nM in assay [1] (read-out: 2a JFH (nM)); less than 1 nM in assay [2] (read-out: 3a); 0.02 nM in assay [2] (read-out: 3a (nM)); less than 1 nM in assay [3] (read-out: 2b); 0.049 nM in assay [3] (read-out: 2b (s) (nM)). The EC50 in assay [3] (read-out: 2b (t) (nM)) was 0.051 nM; in assay [4] (read-out: 2a J6) it was less than 1 nM; in assay [4] (read-out: 2a Jb (t) (nM)), 0.182 nM; in assay [5] (read-out: 1a Q30R), less than 1 nM; in assay [5] (read-out: 1a Q30R (nM)), 0.051 nM; in assay [6] (read-out: 1a), less than 1 nM. Moreover, the EC50 in assay [6] (read-out: 1a (nM)) amounted to 0.007 nM.
For `COC(=O)N[C@H](C(=O)N1[C@@H](C)CC[C@H]1c1ncc(-c2ccc3c(c2)COc2cc4c(ccc5nc([C@@H]6CCCN6C(=O)[C@H](NC(=O)OC)c6ccccc6)[nH]c54)cc2-3)[nH]1)C(C)C` [Example NQ, Methyl {(2S)-1-[(2S,5S)-2-(5-{2-[(2S)-1-{(2R)-2-[(methoxycarbonyl)amino]-2-phenylacetyl}pyrrolidin-2-yl]-1,11-dihydroisochromeno[4′,3′:6,7]naphtho[1,2-d]imidazol-9-yl}-1H-imidazol-2-yl)-5-methylpyrrolidin-1-yl]-3-methyl-1-oxobutan-2-yl}carbamate], the EC50 in assay [1] (read-out: 2a JFH) was less than 1 nM; in assay [1] (read-out: 2a JFH (nM)), 0.006 nM; in assay [2] (read-out: 3a) it was less than 1 nM; in assay [2] (read-out: 3a (nM)) it was 0.013 nM; in assay [3] (read-out: 2b), less than 1 nM; in assay [3] (read-out: 2b (s) (nM)) it was 0.012 nM. The EC50 in assay [3] (read-out: 2b (t) (nM)) is 0.013 nM; in assay [4] (read-out: 2a J6) it was less than 1 nM; in assay [4] (read-out: 2a Jb (t) (nM)), 0.064 nM; in assay [5] (read-out: 1a Q30R), less than 1 nM; in assay [5] (read-out: 1a Q30R (nM)) it was 0.039 nM; in assay [6] (read-out: 1a), less than 1 nM. Moreover, the EC50 in assay [6] (read-out: 1a (nM)) was found to be 0.017 nM.
Turning to `CC[C@H](C)[C@H](NC(=O)OC)C(=O)N1C[C@@H](COC)C[C@H]1c1nc2ccc3cc4c(cc3c2[nH]1)OCc1cc(-c2cnc([C@@H]3CC[C@H](C)N3C(=O)[C@@H](NC(=O)OC)C(C)C)[nH]2)ccc1-4` [Example ON, methyl {(2S)-1-[(2S,4S)-2-(5-{2-[(2S,5S)-1-{(2S,3S)-2-[(methoxycarbonyl)amino]-3-methylpentanoyl}-4-(methoxymethyl)-2-yl]-1,11-dihydroisochromeno[4′,3′:6,7]naphtho[1,2-d]imidazol-9-yl}-1H-imidazol-2-yl)-5-methylpyrrolidin-1-yl]-3-methyl-1-oxobutan-2-yl}carbamate], the EC50 in assay [1] (read-out: 2a JFH) was less than 1 nM; in assay [1] (read-out: 2a JFH (nM)), 0.004 nM; in assay [3] (read-out: 2b (t) (nM)), 0.086 nM; in assay [4] (read-out: 2a J6), less than 1 nM; in assay [4] (read-out: 2a Jb (t) (nM)) it was 0.068 nM; in assay [5] (read-out: 1a Q30R) it was less than 1 nM. For the same molecule, the values for the EC50 in assay [6] (read-out: 1a) and in assay [6] (read-out: 1a (nM)) were less than 1 nM and 0.005 nM, respectively.

Values taken from patent US8575135B2 (Gilead Sciences, Inc., priority 2011, dated 2013).
